In patent US9034943B2, “Salts of dehydroacetic acid as a pyrithione stabilizer in plastics” (LONZA LTD, priority 2009, dated 2015):
Read-outs that look alike come from different tables or passages of the source.

Key:
[1] = test system: Aspergillus niger ATCC 9642; Aureobasidium pullulans ATCC 15233; Chaetomium globosum ATCC 6205; Penicillium funiculosum ATCC 11797; Trichoderma virens ATCC …; assay: Fungal resistance test, ASTM G21, on mineral salts agar; parameters: Zone of Inhibition: key to the marks not given beside the values; settings: PVC samples inoculated with mixed fungi, 28° C., 4 weeks
[2] = Procedure: (§1) Zinc dehydroacetate and zinc pyrithione were mixed with filled and clear commercial flexible polyvinyl chloride (PVC) compounds. The mixtures were extruded using an intermeshing modular co-rotating twin screw extruder to form flexible PVC compounds. […] Following extrusion, the flexible PVC compounds were cooled. Once cooling was complete, the flexible PVC compounds were pressed at 185° C. to form plastic sheets.
as §1, with “Zinc” for “Zinc dehydroacetate and zinc”, “pyrithione was” for “pyrithione were”
The weathering tester was set to a cycle of eight hours of ultraviolet A light (long wave) exposure and a four hour water condensation cycle in accordance with ASTM […]. After 1,000 hours of exposure, the plastic sheets were examined for color development.

## zinc pyrithione
[1]
  Fungal Growth Reading: 0
  Zone of Inhibition: ++
[2]; clear flexible PVC sheet, 0 hours QUV exposure
  Color Rating of Clear FPVC: 0
[2]; clear flexible PVC sheet, 1,000 hours QUV exposure (8 h UVA / 4 h condensation cycle)
  Color Rating of Clear FPVC: 3
[2]; filled flexible PVC sheet, 0 hours QUV exposure
  Color Rating of Filled FPVC: 0
[2]; filled flexible PVC sheet, 1,000 hours QUV exposure (8 h UVA / 4 h condensation cycle)
  Color Rating of Filled FPVC: 4
